This is an account of results in patent US10420748B2, “Methods of treatment associated with the granulocyte colony-stimulating factor receptor” (LIGAND PHARMACEUTICALS INCORPORATED, priority 2013, dated 2019).

The test system of one assay is HEK293 cells. Put plainly: Cell growth inhibition (ATPlite), HEK293. Format: cell-based. As to conditions: Homo sapiens, HEK293, 72 hours, mean±SEM, n = 3, read-out: Inhibition of Tumor Cell Growth (IC50, μM) HEK293. On the procedure:
(§1) The human acute promyelocytic leukemia cell line HL-60, the acute myeloid leukemia cell line Kasumi-1, the lung carcinoma cell line A549, the embryonic kidney cell line HEK293, and the hepatocellular carcinoma cell line HepG2 were purchased from ATCC. HL-60 and A549 cells were grown in RPMI-1640 media containing 10% fetal bovine serum (FBS). Kasumi-1 cells were grown in RPMI-1640 media containing 20% FBS. HEK293 and HepG2 cells were grown in Eagles Minimal Essential Media containing 10% FBS. Cells were plated in 96-well microtiter plates at a density of either 2000 cells/well (A549 cells) or 5000 cells/well and incubated overnight at 37° C. Cell growth was measured by the ATPlite™ istep Kit (PerkinElmer, Waltham, Mass.) according to the manufacturer's instructions. ATPlite™ uses firefly luciferase to indirectly quantify the level of adenosine triphosphate (ATP) as a measure of proliferation and cytotoxicity of cultured mammalian cells. Compounds were diluted in the appropriate cell culture media for each cell type at incremental concentrations ranging from 0.1 nM to 100 tiM. […] Luminescence, quantified as relative luciferase units (RLU), was measured on an Envision plate reader (PerkinElmer). For each replicate, the mean and standard deviation of the RLU at each concentration of compound was calculated. […]
For orientation: Cellular ATP, detected with luciferase, serves as a proxy for viable cell number.

The test system of assay [1] is HL-60 cells. Put plainly: Induction of apoptosis (Annexin V/Sytox Red, FACS). Format: cell-based, human. To be noted: HL-60, 10 μM, 48 hours, versus vehicle (DMSO), FIG. 2. The procedure:
HL-60 cells were incubated under similar conditions to the cell growth assay described above (i.e. 50,000 cell/well of a 24-well plate, incubated in cell culture media in the presence of vehicle or compound for 48 hours at 37° C. in an incubator with 5% CO2). Apoptosis was determined by using Annexin V/Sytox Red staining (Life Technologies/Invitrogen) followed by assaying with fluorescence-activated cell sorting (FACS) according to standard protocols. In this assay, vehicle constituted DMSO and the test compound (Compound 101) was diluted to 10 μM with cell culture media from a 10 mM stock solution of Compound 101 in DMSO. The results of the apoptosis assay are described in FIG. 2. […] Compound 101 decreased the number of viable cells in the assay by over 60% and produced nearly a 50% increase in necrotic cells and over a 15% increase in apoptotic cells.

In the next assay the test system is Kasumi-1 cells. Put plainly: Cell growth inhibition (ATPlite), Kasumi-1. To be noted: Homo sapiens, Kasumi-1, 72 hours, mean±SEM, n = 3, read-out: Inhibition of Tumor Cell Growth (IC50, μM) Kasumi-1. Format: cell-based. The procedure: as §1
A further assay concerns HEPG2 cells. Put plainly: Cell growth inhibition (ATPlite), HEPG2. Format: cell-based. As to conditions: Homo sapiens, HEPG2, 72 hours, mean±SEM, n = 3, read-out: Inhibition of Tumor Cell Growth (IC50, μM) HEPG2. The procedure: as §1
A further assay concerns Cynomolgus monkeys. Put plainly: Blood cell induction (peripheral blood neutrophils). It is filed as in vivo. The procedure: Test compound was evaluated in an animal model for the ability to increase blood cell count, and particularly peripheral blood neutrophils, according to the following protocol. A test compound (Compound 101) was formulated in DMSO:PEG400:PBS at a concentration of 2 mg/mL. Cynomolgus monkeys where then dosed with either vehicle or the test compound via an IV injection for three days. Doses were administered in the morning and then at 5, and 10 hours later. On Day four, a single dose was administered. Blood samples were then collected at the start of the experiment, at Day 4 at 3 hours, 6 hours, and 9 hours after the single dose, and at Day 7. Blood samples were collected and analyzed on a commercial hematology system (ADVIA 2120). The results for neutrophil evaluation are graphically represented in FIG. 3 for both vehicle and Compound 101.

In another assay the test system is A549 cells. Put plainly: Cell growth inhibition (ATPlite), A549. To be noted: Homo sapiens, A549, 72 hours, mean±SEM, n = 3, read-out: Inhibition of Tumor Cell Growth (IC50, μM) A549. It is filed as cell-based. On the procedure: as §1
The subject of assay [2] is HL-60 cells. Put plainly: Cell growth inhibition (ATPlite), HL-60. Format: cell-based, human. To be noted: HL-60, 72 hours. The procedure: as §1, with “cells.” for “cells. Compounds were diluted in the appropriate cell culture media for each cell type at incremental concentrations ranging from 0.1 nM to 100 tiM.”
HL-60 cells were plated in 96-well microtiter plates in RPMI-1640 media containing 10% FBS at a density of 5000 cells/well. […] Cell growth was measured using the ATPlite™ istep Kit. […]

The term IC50 denotes the concentration needed to halve the response being measured. As to `Cc1cc(C)cc(N2C(=O)/C(=C(\NNC(=O)CCC(N)=O)c3ccccc3)c3ccc(C(F)(F)F)cc32)c1` [Compound 101], the 50% inhibitory concentration (IC50) in the assay with HEK293 cells amounted to 1.4 ± 0.04 µM; with Kasumi-1 cells it was 12.1 ± 2.4 µM; in the assay with HEPG2 cells, 0.9 ± 0.1 µM; with A549 cells, 6.1 ± 2.5 µM; in the assay on HL-60 cells [2] (Homo sapiens, mean±SEM, n = 5, read-out: Inhibition of Tumor Cell Growth (IC50, μM) HL-60), 5 ± 2.8 µM. Moreover, the “increase in apoptotic cells” value in the assay with HL-60 cells [1] is reported as > 15%. The “increase in necrotic cells” value in the assay with HL-60 cells [1] is ~50%. Also, the cytotoxicity at 10 µM in the assay on HL-60 cells [1] (Homo sapiens, read-out: decrease in number of viable cells) is > 60%. Besides, in the assay on Cynomolgus monkeys (Day 7 time point), the “neutrophil count following three days without dosing” value is reported as “returned to a level similar to the vehicle”. For the same molecule, the “significance of neutrophil count increase versus vehicle” value with Cynomolgus monkeys (IV, Day 4, 9 hours after the single dose) is “statistically significant”. Besides, in the assay on Cynomolgus monkeys (IV, three doses daily for three days, single dose Day 4, Day 4 samples, FIG. 3), the “neutrophil count versus vehicle after the three day dosing phase” value was “higher neutrophil count than vehicle”. In the assay on HL-60 cells [2] (versus Blank), the “effect on HL-60 cell growth (dose response curve, FIG. 1)” value is “dose-dependent effect”.
